In patent US9458437B2, “Neuroprotective peptides that inhibit interaction between palmitoyl acyl transferase zinc-finger DHHC type containing 17 (zD17) and c-jun N-terminal kinase (JNK)” (The University of British Columbia, priority 2011, dated 2016):

How the values were obtained:
[1] = molecular target: T1, JNK3 (Rattus norvegicus, UniProt P49187); assay: kinase assay (KA) on JNK3 immunoprecipitated from cell lysates; format: cell-based; conditions: for JNK3 activity normalized to 0 h: NMDA + NIMoE
T1 construct: cell lysates were prepared and JNK was immunoprecipitated with specific antibodies; endogenous in cells; host or cells: rat primary neuronal cultures; JNK3 immunoprecipitated from lysate
T1 sequence (P49187 whole entry): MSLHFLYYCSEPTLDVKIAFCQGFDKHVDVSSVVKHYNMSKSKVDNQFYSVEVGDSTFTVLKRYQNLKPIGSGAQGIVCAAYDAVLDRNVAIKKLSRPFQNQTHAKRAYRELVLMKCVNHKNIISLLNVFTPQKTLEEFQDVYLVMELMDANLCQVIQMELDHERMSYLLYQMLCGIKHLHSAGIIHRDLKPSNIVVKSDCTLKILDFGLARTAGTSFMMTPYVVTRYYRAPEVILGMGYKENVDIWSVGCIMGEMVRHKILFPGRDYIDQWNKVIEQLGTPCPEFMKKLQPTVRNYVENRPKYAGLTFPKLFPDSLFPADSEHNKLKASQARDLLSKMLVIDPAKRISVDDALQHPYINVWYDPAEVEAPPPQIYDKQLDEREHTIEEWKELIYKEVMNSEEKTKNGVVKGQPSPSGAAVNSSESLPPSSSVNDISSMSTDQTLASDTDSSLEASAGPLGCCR
Protocol: JNK activity was measured with an in vitro kinase assay as described elsewhere (see, for e.g.: Khatlani et al., 2007). Briefly, cell lysates were prepared and JNK was immunoprecipitated with specific antibodies. The immnoprecipitates were then resuspended in 1× kinase buffer (Cell Signaling Technology™) supplemented with 200 μM ATP and 250 μg/ml GST-c-jun (1-89), and incubated at 30° C. for 30 min. Reactions were terminated by the addition of SDS-PAGE sample buffer. Phosphorylated c-jun was resolved by SDS-PAGE and detected with anti-p-c-jun.

[2] = tested on: middle cerebral artery occlusion (MCAo); assay: transient MCAo in SD rats, infarct volume (TTC histology); format: in vivo, Sprague-Dawley rat
[3] = tested on: middle cerebral artery occlusion (MCAo); assay: transient MCAo in SD rats, adhesive removal test (ART); format: in vivo, Sprague-Dawley rat; set-up: unit not given here; conditions: peptide given 4 h after MCAo onset
[4] = molecular target: zD17-JNK3 interaction (Rattus norvegicus, UniProt P49187); assay: co-immunoprecipitation of zD17 with JNK3 in cortical neuronal cultures; format: cell-based; set-up: diminished the co-immunoprecipitation of zD17 with JNK3; endogenous in cells; host or cells: primary cortical neurons of embryonic (E18-19) Wistar rat
Sequence of zD17-JNK3 interaction (P49187 whole entry): as above
Protocol: All animal experiments were approved by the Animal Care Committee of the University of British Columbia. Primary cortical cultures were prepared from Wistar rat (UBC Animal Care Centre, Vancouver, BC, Canada) brains at embryonic days 18-19. Cultures were maintained in Neurobasal medium supplemented with B27 and 0.5 mM glutamax (Invitrogen™) as described previously (Yang et al., 2009).
The protocols for protein extraction have been described previously (Yang et al., 2009). For co-immunoprecipitation, cultured cells were washed with ice-cold PBS followed by incubation with 0.5 ml Gentle Lysis Buffer (GLB) containing 25 mM Tris-HCl (pH 7.4), 2 mM EDTA, 1 mM EGTA, 10 mM NaCl, 0.5% Triton X-100 and 10% Glycerol supplemented with the Complete Protease Inhibitor Tablets (Roche Applied Science™, Indianapolis, Ind., USA) and 1 mM PMSF. Total protein concentration was determined with the BioRad™ Protein Assay kit. Lysates were first precleaned by incubating with Protein A-Sepharose beads (Roche Applied Science™) for 1 h at 4° C., followed by incubation with indicated antibodies (>16 h at 4° C.) and protein A Sepharose bead (2 h at 4° C.). Lysates of rat brain tissues were precleaned with IgG and protein A-beads. Immunoprecipitates were washed three times with GLB buffer; boiled in 2× loading buffer with 1 mM dithiothreitol (DTT) for 3 min; and analyzed with SDS-PAGE as described previously (Yang et al., 2009). The relative intensities of the bands on immunoblots were analyzed and quantified using Image J™ (NIH).

[5] = tested on: cultured neurons; assay: axonal development in cultured neurons (Tau-1 labelling); format: cell-based, rat
Protocol: For biochemical studies, neurons were seeded in six-well culture plates with a density of 7.5×10^5 cells per well. For LDH assay and cell death detection, 24-well culture plates were used with a neuron density of 2.5×10^5 cells per well. Neurons of 14-17 days in vitro (DIV) were used for experiments. […] HEK 293 cells were maintained in DMEM (Invitrogen™) supplemented with 10% fetal bovine serum and 1% penicillin/streptomycin. For protein expression in cell lines, cells were transfected with Calcium Phosphate Transfection reagent (Promega™, San Luis Obispo, Calif., USA) and used 24 h later as described previously (Yang et al., 2009). The JNK inhibitor, L-JNKI, was purchased from Alexis Biochemicals™ (San Diego, Calif.). Thrombin was obtained from BIOPUR™ (Bubendorf, Switzerland). Other assay reagents without indication were obtained from Sigma™.
Cultured hippocampal neurons on glass coverslips were used for immunostaining. After treatments indicated in the text, neurons were fixed with 2% paraformaldehyde for 3 min at room temperature followed by permeabilization with ice-cold methanol for 10 min at −20° C. The coverslips were then washed three times with PBS and immunostained with appropriate antibodies dissolved in PBS for 1 h at room temperature. After washing three times with PBS, coverslips were incubated with Alexa-labeled secondary antibodies from Invitrogen for an additional 1 h. For mitochondrial detection, neuronal cultures were incubated at 37° C. for 30 min with 2 μM MitoTracker-TR (Invitrogen™). Coverslips were then fixed and mounted with ProLong Gold Antifade Reagent (Invitrogen™). Fluorescence was captured using a Zeiss Observer Z1™ microscope and all images were analyzed with ImageJ™ and processed using Adobe Photoshop™.

[6] = tested on: c-jun; assay: NMDA-induced c-jun phosphorylation in neurons; format: cell-based, rat; conditions: neuronal cultures
[7] = tested on: caspase-3; assay: NMDA-induced caspase-3 cleavage in neurons; format: cell-based, rat; conditions: neuronal cultures

Row | Sequence | enhancement of JNK3 activity induced by NMDA ([1]; neuronal cultures) | ART ([3]; day-1) | ART ([3]; day-3) | ART ([3]; day-7) | ART ([3]; day-14) | enhancement of the zD17-JNK3 interaction induced by NMDA/excitotoxicity [4] | NMDA-induced c-jun phosphorylation [6] | NMDA-induced caspase-3 cleavage [7] | also measured
1 | HRYRWLTDLLSMVTTPAAPM (NIMoEscr scrambled NIMoE) [negative control peptide resulting from a scrambled NIMoE, reference compound] | did not selectively block enhancement | 12.63±3.14 | 34.13±6.88 | 59.13±5.67 | 81.88±4.44 | did not selectively block enhancement | – | – | total infarct volume ([2]; scrambled control peptide group, injection time not given): 212.60±37.6 mm^3
2 | MTPLMWAAYRTHSVDPTRLL (listed as Homo sapiens) [NIMoE, peptide comprising motif-E of zD17, fused to the cell-membrane transduction domain of HIV-1 Tat for cell experiments] | selectively blocked the enhancement | – | – | – | – | selectively blocked the enhancement | able to prevent | effectively blocked | JNK3 activity normalized to 0 h ([1]; 0.5 h): 90.6±5.3%; JNK3 activity normalized to 0 h ([1]; 1 h): 47.0±17.6%; JNK3 basal activity ([1]; neuronal cultures): no effect; JNK3 basal activity, fold change to control ([1]; pretreatment of cells 1 μM for 2 h): 0.89±0.10 fold; axon extension (length) ([5]; NIMoE incubation, control 160.0±8.9): 161.1±13.6; effect on axon initiation and extension ([5]; chronic incubation in cultured neurons): did not affect; axon initiation rate normalized to control ([5]; incubation of cultured neurons, Tau-1 marker): 98.6±0.2%; zD17-JNK3 interaction (co-immunoprecipitation), baseline ([4]; no NMDA): no effect
3 | WAAYRTHSVD (listed as Homo sapiens) [NIMoEsh, shorter 10mer of NIMoE, primarily the loop region of motif-E (zD17 196-205)] | – | 52.57±6.82 | 73.86±9.63 | 94.86±7.33 | 101.43±3.35 | – | able to prevent | effectively blocked | infarct volume compared with non-treated, saline-treated and scramble peptide-treated groups ([2]; post-surgical interventions at 2 h or 4 h): effective protection for the ischemic brain; total infarct volume ([2]; single i.v. injection +2 h after MCAo onset): 41.95±8.22 mm^3; total infarct volume ([2]; single i.v. injection +4 h after MCAo onset): 78.74±28.50 mm^3; total infarct volume ([2]; single i.v. injection −0.5 h (before MCAo onset), control 240.70±35.67): 43.43±9.82 mm^3; reduction of total infarct size ([2]; single intravenous injection 30 min before MCAo): about 80%
